Measured values published in patent US20030166202A1, “P450 Monooxygenases of the cyp79 family” (priority 2000, published 2003).

Assays:
CYP79E1 = biological target: T1, CYP79E1 (Manihot esculenta, UniProt Q9M7B8); assay: Substrate specificity / reconstitution of CYP79E1; format: biochemical, Triglochin maritima
T1 construct: A full length construct (CYP79E1na) encoding native CYP79E1 with silent mutations introduced at codons 3 and 5; made in house; host or cells: E. coli JM109 (vector pSP19g10L)
T1 sequence (Q9M7B8 whole entry): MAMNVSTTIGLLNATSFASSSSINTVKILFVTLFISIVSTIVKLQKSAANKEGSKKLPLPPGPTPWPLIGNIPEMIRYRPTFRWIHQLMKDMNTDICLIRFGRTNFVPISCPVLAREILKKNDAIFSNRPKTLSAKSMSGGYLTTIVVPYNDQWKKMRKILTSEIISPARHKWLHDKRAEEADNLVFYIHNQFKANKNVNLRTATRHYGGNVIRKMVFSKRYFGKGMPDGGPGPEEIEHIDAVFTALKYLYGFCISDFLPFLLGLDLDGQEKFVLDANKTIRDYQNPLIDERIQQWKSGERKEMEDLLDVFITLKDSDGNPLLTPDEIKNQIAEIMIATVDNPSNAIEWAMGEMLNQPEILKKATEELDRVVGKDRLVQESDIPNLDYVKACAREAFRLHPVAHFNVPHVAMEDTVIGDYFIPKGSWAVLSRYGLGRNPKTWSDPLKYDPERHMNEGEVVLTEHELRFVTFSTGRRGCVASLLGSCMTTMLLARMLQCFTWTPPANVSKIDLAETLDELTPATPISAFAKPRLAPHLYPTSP
Method: (§1) Investigations into the substrate specificity of CYP79D1, CYP79D2, CYP79E1, CYP79E2, CYP79A2, CYP79B2, CYP79B5 and CYP79F1 are carried out in E. coli spheroplasts reconstituted with sorghum NADPH-cytochrome P450 oxidoreductase in the presence of high amounts of lipids. L-α-dioleyl phosphatidyl choline and L-α-dilauroyl phosphatidyl choline are preferred lipids for the reconstitution. […] Neither L-methionine, L-tryptophane nor L-tyrosine are metabolized by CYP79A2. Neither phenylalanine nor tyrosine are metabolized by CYP79B2. Neither L-tryptophane, L-phenylalanine nor L-tyrosine are metabolized by CYP79F1. D-Amino acids are not converted into oximes by CYP79D1, CYP79D2, CYP79E1 and CYP79E2. Depending on the nature of the substrate, substrate specificity may also be determined using intact P. pastoris cells or intact E. coli cells.
(§2) Expression levels of the different constructs are determined by CO difference spectroscopy and quantified using an extinction coefficient ε450-490 of 91 mM^−1cm^−1 (Omura et al, J. Biol. Chem. 239: 2370-2378, 1964). Spectra are made from 100 μl or 500 μl whole E. coli cells or using the rich phases from Triton X-114 phase partitioning solubilized in 50 mM KH2PO4/K2HPO4 pH 7.5, 2 mM EDTA, 20% glycerol, 0.2% Triton X-100 (total volume: 1 ml). […] In vitro activities are measured in reconstitution experiments using the rich phase from phase partitioning. […]

CYP79E2 = assay: Substrate specificity / reconstitution of CYP79E2; format: biochemical, Triglochin maritima
Method: as §1, §2

CYP79D1 = CYP79D1 (Manihot esculenta, UniProt Q9M7B8)
Chain of CYP79D1 (Q9M7B8 2-542): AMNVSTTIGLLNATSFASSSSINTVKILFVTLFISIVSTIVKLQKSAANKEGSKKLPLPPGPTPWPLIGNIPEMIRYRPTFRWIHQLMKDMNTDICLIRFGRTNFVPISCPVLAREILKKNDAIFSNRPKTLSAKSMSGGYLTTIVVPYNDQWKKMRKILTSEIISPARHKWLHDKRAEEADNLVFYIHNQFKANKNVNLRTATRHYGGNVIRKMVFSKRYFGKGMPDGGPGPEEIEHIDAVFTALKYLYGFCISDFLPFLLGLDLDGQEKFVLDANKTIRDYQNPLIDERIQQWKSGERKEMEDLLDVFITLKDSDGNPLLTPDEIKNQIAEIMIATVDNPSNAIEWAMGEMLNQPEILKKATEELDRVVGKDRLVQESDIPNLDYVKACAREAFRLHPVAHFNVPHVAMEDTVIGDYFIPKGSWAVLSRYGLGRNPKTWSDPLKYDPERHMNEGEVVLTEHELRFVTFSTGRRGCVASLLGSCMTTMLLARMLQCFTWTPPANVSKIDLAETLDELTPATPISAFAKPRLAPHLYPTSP
Method: Isolated, recombinant CYP79D1 is reconstituted and its catalytic activity determined in vitro using reaction mixtures with a total volume of 30 μl containing 2.5 pmol CYP79D1, 0.05 U NADPH P450-oxidoreductase (Benveniste et al, Biochem J 235: 365-373, 1986), 10.6 mM L-α-dioleyl phosphatidylcholine, 0.35 μCi [U-^14C]-L-amino acid (L-Val, L-Ile, L-Leu, L-Tyr or L-Phe; Amersham, Sweden), 1 mM NADPH, 0.1 M NaCl and 20 mM KPi pH 7.9. In assays containing ^14C-L-valine or ^14C-L-isoleucine, different amounts of unlabeled L- and D-amino acids (0-6 mM) are added. After incubation for 10 minutes at 30° C. the products formed are extracted into 60 μl ethyl acetate and separated on TLC sheets (Merck Kieselgel 60F254) using n-pentane/diethyl ether (50:50, v/v) or toluene/ethyl acetate (5:1, v/v) as eluents for aliphatic compounds and aromatic compounds, respectively. ^14C-labeled oximes are visualized and quantified using a STORM 840 phosphor imager (Molecular Dynamics, CA, USA). The activity of CYP79D1 is additionally measured in the presence of the inhibitors tetcyclasis, ABT and DPI under the same conditions as described above. For in vivo activity assays 200 μl P. pastoris cells are pelleted and resuspended in 100 μl 50 mM Tricine pH 7.9 and 0.35 μCi [U-^14C]-L-valine or L-isoleucine. After incubation for 30 minutes at 30° C. the cells are extracted with ethyl acetate and the products formed are analyzed as above.
CYP79D1 is reconstituted with sorghum NADPH-P450 oxidoreductase in the presence of high amounts of the lipid L-α-dioleyl phosphatidylcholine and 100 mM NaCl. […] To examine the effect of inhibitors on isolated CYP79D1, reconstitutions are performed in the presence of tetcyclasis, ABT and DPI using the same conditions as for cassava microsomes.

[1] = with NADPH, NADPH-cytochrome P450 oxidoreductase, CYP71E1

## N[C@@H](Cc1ccc(O)cc1)C(=O)O [L-tyrosine]
CYP79E1
  conversion to the corresponding oxime by CYP79E1: found to convert
CYP79E1; [1]
  product accumulation in reconstitution of CYP79E1 with CYP71E1: considerable amounts of p-hydroxyphenylacetonitrile and p-hydroxybenzaidehyde accumulate
CYP79E2
  conversion to the corresponding oxime by CYP79E2: found to convert
CYP79E2; [1]
  product accumulation in reconstitution of CYP79E2 with CYP71E1: considerable amounts of p-hydroxyphenylacetonitrile and p-hydroxybenzaidehyde accumulate
CYP79D1
  metabolism relative to that observed with L-valine (detection level): < 0.8%
